Blank lines part the entries; values can stand above or below the compound they belong to.
Tests used:
[1] = tested on: small intestine of fasting male Wistar rats (glucose absorption); assay: In vitro method for the inhibition of glucose absorption (small intestine rings, D-glucose-14C); parameters: species or system rat (male Wistar); conditions: Rattus norvegicus, 2 min; 10 mg/ml; 2 minutes at 37° C., pH 7.4, D-glucose-14C 10 mg/ml
Experimental: In vitro method for the inhibition of glucose absorption
The upper part of the small intestine of fasting male Wistar rats is folded over and cut into rings about 3 mm wide. 10 of these rings (~150 mg moist weight) are incubated for 2 minutes at 37° C. in 5 ml of Krebs-Ringer bicarbonate buffer (pH 7.4) with D-glucose-^14 C (U) (10 mg/ml, 0.2 μCi/ml), with the addition of the active compounds. The washed and dried-off intestine rings are weighted, dissolved in 5 ml of Digestin (Merck)/isopropanol (1:1) and the radioactivity absorbed in the tissue is determined in a liquid scintillation counter. All values are corrected using the radioactivity absorbed in the tissue as D-mannitol-1-^14 C.
In vitro inhibitions of the glucose absorption by some selected compounds (10 mg/ml): […]

glucosidase [2] = assay: Starch feeding test: postprandial blood sugar after oral starch + glucosidase inhibitor in fasting rats; assay type: in vivo, rat; conditions: for Blood sugar ± standard deviation, 15 minutes: starch control 131 ± 7.2, fasting control 60 ± 4.2; for Blood sugar ± standard deviation, 30 minutes: starch control 113 ± 9.2, fasting control 62 ± 3.4
Experimental: (§1) The in vivo activity of the compound was tested on some examples using the experimental arrangement described in the following text.
(§2) Oral administration of starch or sucrose causes a rise in the blood sugar in warm-blooded animals, provided that the carbohydrates are enzymatically degraded in the small intestine to monosaccharides. The inhibition of their enzymatic hydrolysis by glucosidase inhibitors causes a reduced rise in the blood sugar.
(§3) In order to detect the action of glucosidase inhibitors, 6 fasting rats receive perorally, 1 g of broiled starch or 2.5 g of sucrose/kg in the form of an aqueous suspension or in the form of an aqueous solution (starch and sucrose control respectively). An equal number of rats receive the glucosidase inhibitor in the dose indicated, together with the same amount of the carbohydrate concerned. An equal volume of physiological sodium chloride solution is administered orally to a further six rats (control). After administration of the carbohydrate concerned±glucosidae inhibitor, the postprandial change in blood sugar is measured, at the times indicated, in blood from the postorbital venous plexus in an auto-analyser according to the method of W. S. Hoffmann [J biol. Chem 120, 51 (1937)].

glucosidase [3] = assay: Sucrose feeding test: postprandial blood sugar after oral sucrose + glucosidase inhibitor in fasting rats; assay type: in vivo, rat
Experimental: as §1, §2, §3

[4] = molecular target: T1, intestinal disaccharidase complex (saccharase) (Sus scrofa, UniProt P56729); assay: In vitro saccharase inhibition test; assay type: biochemical, pig; conditions: for specific inhibitory activity (saccharase inhibitor units per gram): pH 6.25, 37° C., 20 minutes, sucrose substrate
T1 construct: both subunits cut from one SI precursor
Excerpt: In vitro saccharase inhibition test
The in vitro saccharase inhibition test makes it possible to determined the enzyme inhibitory activity of a sample by comparing the activity of the solubilised intestinal disaccharidase complex in the presence of the inhibitor with its activity in the absence (so-called 100% value) of the inhibitor. A virtually glucose-free (<100 ppm) saccharose is used here as the substrate, which determines the specificity of the inhibition test; the enzyme activity determination is based on the colorometric determination of liberated glucose by means of glucoseoxydase, peroxydase and 2,2-azino-di-[3-ethyl-benzthiazoline-6-sulphonate] (=ABTS) as the chromogen.
A saccharase inhibitor unit (SIU) is defined as that inhibitory activity which reduces a given saccharolytic activity in a defined test batch by one unit (saccharase unit=SU); the saccharase unit is defined here as that enzyme activity which, under given conditions, in one minute splits 1 μmol of sucrose and thus leads to the liberation of 1 μmol each of glucose, which is determine in the test, and fructose, which is not detected in the test.
The intestinal disaccharidase complex is obtained from pig's small intestine mucosa by trypsin digestion, precipitation from 66% ethanol at -20° C., taking up of the precipitate in 100 mM phosphate buffer of pH 7.0 and concluding dialysis against the same buffer.
100 μl of a dilution of the intestinal disaccharidase complex in 0.1 M maleate buffer of pH 6.25 are added to 10 μl of a sample solution which is diluted so that the extinction of the test batch is at least 10%, but not more than 25%, below that of the 100% value, and the mixture is pre-incubated for 10 minutes at 37° C. The dilution of the disaccharidase complex is to be adjusted to an activity of 0.05 SU/ml. […] In order to develop the colour, the mixture is incubated for 30 minutes at 37° C., after which it is diluted with 2 ml of tris buffer and measured photometrically at 420 nm against a reagent blank (with enzyme but without sucrose). […]

[5] = 0.92 mg/kg perorally + 1 g starch/kg
[6] = 0.65 mg/kg perorally + 1 g starch/kg

T1 sequence (P56729 with tags, fused parts or gaps): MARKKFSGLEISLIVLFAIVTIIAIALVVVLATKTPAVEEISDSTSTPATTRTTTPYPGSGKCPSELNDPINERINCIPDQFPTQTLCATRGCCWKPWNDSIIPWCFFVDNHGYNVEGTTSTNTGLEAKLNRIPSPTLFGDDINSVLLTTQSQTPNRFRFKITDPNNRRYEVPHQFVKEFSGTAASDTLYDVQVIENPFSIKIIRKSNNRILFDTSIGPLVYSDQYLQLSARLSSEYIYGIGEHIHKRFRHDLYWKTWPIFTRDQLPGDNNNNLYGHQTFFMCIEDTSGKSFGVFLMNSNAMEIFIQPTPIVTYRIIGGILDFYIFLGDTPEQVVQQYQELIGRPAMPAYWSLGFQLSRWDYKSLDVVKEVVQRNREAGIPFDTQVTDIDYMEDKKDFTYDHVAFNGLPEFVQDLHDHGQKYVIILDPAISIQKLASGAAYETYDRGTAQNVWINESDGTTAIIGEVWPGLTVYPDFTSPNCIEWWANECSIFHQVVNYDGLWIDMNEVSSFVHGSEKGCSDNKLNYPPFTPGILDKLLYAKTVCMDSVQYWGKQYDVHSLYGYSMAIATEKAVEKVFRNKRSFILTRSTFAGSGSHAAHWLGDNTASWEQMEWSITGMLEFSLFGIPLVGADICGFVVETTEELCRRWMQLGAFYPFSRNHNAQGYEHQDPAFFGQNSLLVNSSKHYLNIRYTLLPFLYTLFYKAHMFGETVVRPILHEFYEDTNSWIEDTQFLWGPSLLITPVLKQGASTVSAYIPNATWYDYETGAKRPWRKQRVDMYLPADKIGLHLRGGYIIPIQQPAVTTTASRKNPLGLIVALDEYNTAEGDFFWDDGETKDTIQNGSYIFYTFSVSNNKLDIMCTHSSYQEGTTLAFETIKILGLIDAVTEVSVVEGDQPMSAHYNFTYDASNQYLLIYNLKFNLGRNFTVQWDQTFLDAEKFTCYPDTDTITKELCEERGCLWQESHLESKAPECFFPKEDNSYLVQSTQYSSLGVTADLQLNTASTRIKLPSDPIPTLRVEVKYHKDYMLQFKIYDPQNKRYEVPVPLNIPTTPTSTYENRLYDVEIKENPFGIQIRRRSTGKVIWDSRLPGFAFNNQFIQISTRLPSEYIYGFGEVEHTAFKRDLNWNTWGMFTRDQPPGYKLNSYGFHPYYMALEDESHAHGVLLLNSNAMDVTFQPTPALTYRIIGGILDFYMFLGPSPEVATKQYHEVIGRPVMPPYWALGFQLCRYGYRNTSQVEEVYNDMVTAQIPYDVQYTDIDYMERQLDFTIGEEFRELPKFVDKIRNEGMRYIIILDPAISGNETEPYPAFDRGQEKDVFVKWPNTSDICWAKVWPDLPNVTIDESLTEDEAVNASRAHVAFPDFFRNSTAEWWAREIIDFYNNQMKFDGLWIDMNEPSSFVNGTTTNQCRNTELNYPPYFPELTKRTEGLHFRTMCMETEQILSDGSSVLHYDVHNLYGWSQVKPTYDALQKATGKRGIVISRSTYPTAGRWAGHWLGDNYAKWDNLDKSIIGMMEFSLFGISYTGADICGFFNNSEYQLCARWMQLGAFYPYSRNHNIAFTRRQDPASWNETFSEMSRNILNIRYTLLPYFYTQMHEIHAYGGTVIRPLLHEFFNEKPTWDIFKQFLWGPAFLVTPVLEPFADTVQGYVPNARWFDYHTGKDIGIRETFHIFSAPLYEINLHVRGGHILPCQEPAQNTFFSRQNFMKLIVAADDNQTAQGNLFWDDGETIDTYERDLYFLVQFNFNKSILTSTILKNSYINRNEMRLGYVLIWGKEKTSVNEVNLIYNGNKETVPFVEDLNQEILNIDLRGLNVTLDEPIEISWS

SMILES: CCCCCCCCCCCCCCCCO[C@@H]1O[C@H](CO)[C@@H](O[C@H]2O[C@H](CO)[C@@H](O[C@H]3O[C@H](C)[C@@H](N[C@H]4C=C(CO)[C@@H](O)[C@H](O)[C@H]4O)[C@H](O)[C@H]3O)[C@H](O)[C@H]2O)[C@H](O)[C@H]1O [Example 4, 18, n-Hexadecyl-O-{C}-(1→4)-O-α-D-glcp-(1→4)-β-D-glucopyranoside]
inhibition at 10000 µg/mL [1]: > 50%

SMILES: C[C@H]1O[C@H](O[C@H]2[C@H](O)[C@@H](O)[C@@H](O[C@H]3[C@H](O)[C@@H](O)[C@H](Oc4ccc(C(=O)O)cc4)O[C@@H]3CO)O[C@@H]2CO)[C@H](O)[C@@H](O)[C@@H]1N[C@H]1C=C(CO)[C@@H](O)[C@H](O)[C@H]1O [Example 1, 7, p-Carboxyphenyl-O-{C}-(1→4)-O-α-D-glcp-(1→4)-β-D- glucopyranoside]
inhibition at 10000 µg/mL [1]: 25 to 50%
Blood sugar ± standard deviation, 15 minutes (glucosidase [2]; [5]): 121 ± 7.7 mg/dL
Blood sugar ± standard deviation, 30 minutes (glucosidase [2]; [5]): 112 ± 4.3 mg/dL
Blood sugar ± standard deviation, 15 minutes (glucosidase [3]; 0.92 mg/kg perorally + 2.5 g sucrose/kg, sucrose control 128 ± 8.0, fasting control 60 ± 4.6): 110 ± 3.4 mg/dL
Blood sugar ± standard deviation, 30 minutes (glucosidase [3]; 0.92 mg/kg perorally + 2.5 g sucrose/kg, sucrose control 133 ± 8.7, fasting control 64 ± 3.7): 118 ± 14 mg/dL
Blood sugar ± standard deviation, 45 minutes (glucosidase [3]; 0.92 mg/kg perorally + 2.5 g sucrose/kg, sucrose control 134 ± 6.1, fasting control 73 ± 7.1): 112 ± 10 mg/dL
Blood sugar ± standard deviation, 60 minutes (glucosidase [3]; 0.92 mg/kg perorally + 2.5 g sucrose/kg, sucrose control 119 ± 10, fasting control 66 ± 4.2): 117 ± 9.0 mg/dL

SMILES: C[C@H]1O[C@H](O[C@H]2[C@H](O)[C@@H](O)[C@@H](O[C@H]3[C@H](O)[C@@H](O)[C@H](Oc4ccc(C(C)(C)C)cc4)O[C@@H]3CO)O[C@@H]2CO)[C@H](O)[C@@H](O)[C@@H]1N[C@H]1C=C(CO)[C@@H](O)[C@H](O)[C@H]1O [Example 1, 9, p-tert-Butylphenyl-O-{C}-(1→4)-O-α-D-glcp-(1→4)-β-D glucopyranoside]
inhibition at 10000 µg/mL [1]: > 50%
Blood sugar ± standard deviation, 15 minutes (glucosidase [3]; 3.0 mg/kg perorally + 2.5 g sucrose/kg, sucrose control 134 ± 13, fasting control 71 ± 3.7): 85 ± 4.8 mg/dL
Blood sugar ± standard deviation, 30 minutes (glucosidase [3]; 3.0 mg/kg perorally + 2.5 g sucrose/kg, sucrose control 116 ± 20, fasting control 70 ± 5.3): 83 ± 7.9 mg/dL
Blood sugar ± standard deviation, 45 minutes (glucosidase [3]; 3.0 mg/kg perorally + 2.5 g sucrose/kg, sucrose control 125 ± 8.6, fasting control 77 ± 5.5): 88 ± 3.4 mg/dL
Blood sugar ± standard deviation, 60 minutes (glucosidase [3]; 3.0 mg/kg perorally + 2.5 g sucrose/kg, sucrose control 112 ± 15, fasting control 78 ± 7.3): 92 ± 9.4 mg/dL

in vitro sucrose inhibitory activity ([4]; isolated isomer): 19,000 SIU/g
SMILES: C[C@H]1O[C@H](O[C@H]2[C@H](O)[C@@H](O)[C@@H](O[C@H]3[C@H](O)[C@@H](O)[C@@H](O[C@H]4[C@H](O)[C@@H](O)C(O)O[C@@H]4CO)O[C@@H]3CO)O[C@@H]2CO)[C@H](O)[C@@H](O)[C@@H]1N[C@H]1C=C(CO)[C@@H](O)[C@H](O)[C@H]1O (stereo partly drawn) [isomers with p=0 and q=3]

specific inhibitory activity (saccharase inhibitor units per gram) [4]: 65,000 SIU/g
SMILES: C[C@H]1O[C@H](O[C@H]2[C@H](O)[C@@H](O)[C@@H](O[C@H]3[C@H](O)[C@@H](O)C(O)O[C@@H]3CO)O[C@@H]2CO)[C@H](O)[C@@H](O)[C@@H]1N[C@H]1C=C(CO)[C@@H](O)[C@H](O)[C@H]1O (stereo partly drawn) [compound with P+q=2]

SMILES: C[C@H]1O[C@H](O[C@H]2[C@H](O)[C@@H](O)[C@@H](O[C@H]3[C@H](O)[C@@H](O)[C@H](Oc4cccc(C(=O)O)c4)O[C@@H]3CO)O[C@@H]2CO)[C@H](O)[C@@H](O)[C@@H]1N[C@H]1C=C(CO)[C@@H](O)[C@H](O)[C@H]1O [Example 1, 5, m-Carboxyphenyl-O-{C}-(1→4)-O-α-D-glcp-(1→4)-β-D- glucopyranoside]
inhibition at 10000 µg/mL [1]: > 50%

SMILES: C[C@H]1O[C@H](O[C@H]2[C@H](O)[C@@H](O)[C@@H](O[C@H]3[C@H](O)[C@@H](O)[C@H](Oc4ccc(O)cc4)O[C@@H]3CO)O[C@@H]2CO)[C@H](O)[C@@H](O)[C@@H]1N[C@H]1C=C(CO)[C@@H](O)[C@H](O)[C@H]1O [Example 1, 8, p-Hydroxyphenyl-O-{C}-(1→4)-O-α-D-glcp-(1→4)-β-D- glucopyranoside]
inhibition at 10000 µg/mL [1]: 25 to 50%
Blood sugar ± standard deviation, 15 minutes (glucosidase [2]; [6]): 112 ± 9.9 mg/dL
Blood sugar ± standard deviation, 30 minutes (glucosidase [2]; [6]): 109 ± 12 mg/dL
Blood sugar ± standard deviation, 15 minutes (glucosidase [3]; 0.65 mg/kg perorally + 2.5 g sucrose/kg, sucrose control 128 ± 8.0, fasting control 60 ± 4.6): 112 ± 3.1 mg/dL
Blood sugar ± standard deviation, 30 minutes (glucosidase [3]; 0.65 mg/kg perorally + 2.5 g sucrose/kg, sucrose control 133 ± 8.7, fasting control 64 ± 3.7): 114 ± 6.3 mg/dL
Blood sugar ± standard deviation, 45 minutes (glucosidase [3]; 0.65 mg/kg perorally + 2.5 g sucrose/kg, sucrose control 134 ± 6.1, fasting control 73 ± 7.1): 119 ± 9.4 mg/dL
Blood sugar ± standard deviation, 60 minutes (glucosidase [3]; 0.65 mg/kg perorally + 2.5 g sucrose/kg, sucrose control 119 ± 10, fasting control 66 ± 4.2): 112 ± 4.3 mg/dL

specific inhibitory activity (saccharase inhibitor units per gram) [4]: 68,000 SIU/g
SMILES: C[C@H]1O[C@H](O[C@H]2[C@H](O)[C@@H](O)[C@@H](O[C@H]3[C@H](O)[C@@H](O)C(O)O[C@@H]3CO)O[C@@H]2CO)[C@H](O)[C@@H](O)[C@@H]1N[C@H]1C=C(CO)[C@@H](O)[C@H](O)[C@H]1O (stereo partly drawn) [compound of the formula I (page 2) with m=0 and n=2]
